Laboratory results from patent US9045425B2, “Solid forms of N-[2,4-bis(1,1-dimethylethyl)-5-hydroxyphenyl]-1,4-dihydro-4-oxoquinoline-3-carboxamide” (Vertex Pharmaceuticals Incorporated, priority 2012, dated 2015).

Legend:
[1] = Polymorph screen solvent systems: solubility noted when preparing saturated solutions; format: physicochemical; details: solvent system: water
Description: A saturated solution of Compound 1, Form XX was made by preparing 1 mL slurries using acetonitrile (ACN), ACN-water (75:25), methylethyl ketone (MEK), or MEK-water (99:1, 90:10, or 80:20) in vials. After 24 hours in capped HPLC vials, the slurries were then filtered to remove residual solids. Approximately 2 additional milligrams of Compound 1 was added to each vial containing a saturated solution. Next, the vials were heated to 70° C. with stirring until all of the material was completely dissolved. Immediately after, the samples were submerged into an ice bath. The product, which precipitated as a white powder within 1 minute, was isolated by filtration and analyzed by XRPD and TGA.
A saturated solution was made by slurrying Compound 1, Form XX in 5 mL of solvent (ACN, isopropyl acetate (IPAc), or MEK) or 1 mL of solvent for the MEK/Water solvent system. After 24 hours, the residual solids were removed by filtration. The saturated solutions were then subjected to rapid solvent evaporation by blowing nitrogen (N2) gas over the samples with a Pierce Model 18780 Reacti-Vap evaporating unit for four hours. The product precipitated as a white powder and the form was analyzed by XRPD and TGA.
A saturated solution of Compound 1, Form XX was made by slurrying either in 5 mL of solvent in the ACN, IPAc, and MEK solvent systems, 2 mL total solvent for IPAc/water, or 1 mL total solvent for the MEK/water solvent systems. After 24 hours, the residual solids were removed by filtration. 20 mL of antisolvent was then quickly added to the saturated solutions to induce precipitation. Hexane was used as the antisolvent in the MEK and IPAc solvent systems, and MTBE was used as the antisolvent in the ACN solvent systems, as a consequence of the immiscibility between ACN and hexane. The product precipitated as a white powder and the form was analyzed by XRPD and TGA.

[2] = Desolvation: standing open under ambient conditions or in vacuum oven, form checked by XRPD; format: physicochemical
Description: A polymorph screen was conducted in the methylethyl ketone (MEK)/water solvent systems, as well as in the acetonitrile (ACN), ACN/water and isopropyl acetate solvent systems. Polymorph screening techniques included crash cooling, solvent evaporation, antisolvent addition, and slurry experiments. Slurry experiments were performed on an IKA RCT hot plate with magnetic stirring set to 710 rpm. The temperature was controlled with an IKA ETS-D5 thermocouple. Solvent volumes were measured and transferred with Gibson Pipetteman volumetric pipettes. New forms that were identified as solvates were subjected to desolvation under two potential conditions: (1) drying in a vacuum oven at 40° C. and (2) sitting undisturbed under ambient conditions in a fume hood. Physical characterization of all forms proceeded by X-ray powder diffraction (XRPD) and thermogravimetric analysis (TGA).
New forms of Compound 1 obtained in the polymorph screen suspected of being solvates were subjected to further form investigation through attempted desolvation. Forms D, E, F, G, H, I, J, K, L and Hydrate A were left to stand open to the atmosphere under ambient conditions and or were placed in a vacuum oven.

In the case of CC(C)(C)c1cc(C(C)(C)C)c(NC(=O)c2c[nH]c3ccccc3c2=O)cc1O [Compound 1, Form XX, N-[2,4-bis(1,1-dimethylethyl)-5-hydroxyphenyl]-1,4-dihydro-4-oxoquinoline-3-carboxamide], the “Solubility in solvent system (antisolvent addition results)” value [1] is reported as “not soluble”, the “Solubility in solvent system (crash cooling results)” value [1] is reported as “not soluble” and the “Solubility in solvent system (solvent evaporation results)” value [1] is reported as “not soluble”.
In the case of CC(C)(C)c1cc(C(C)(C)C)c(NC(=O)c2c[nH]c3ccccc3c2=O)cc1O [Form D, N-[2,4-bis(1,1-dimethylethyl)-5-hydroxyphenyl]-1,4-dihydro-4-oxoquinoline-3-carboxamide], the “Solid form after desolvation attempt” value ([2]; ambient conditions and vacuum oven for approximately 1 month) is reported as “converted to a new crystalline form of Compound 1 designated Form R”.
With CC(C)(C)c1cc(C(C)(C)C)c(NC(=O)c2c[nH]c3ccccc3c2=O)cc1O [Form E, N-[2,4-bis(1,1-dimethylethyl)-5-hydroxyphenyl]-1,4-dihydro-4-oxoquinoline-3-carboxamide] the “XRPD pattern after desolvation attempt” value ([2]; after standing under ambient conditions and after sitting in the vacuum oven) was “same XRPD patterns”.
With CC(C)(C)c1cc(C(C)(C)C)c(NC(=O)c2c[nH]c3ccccc3c2=O)cc1O [Form G, N-[2,4-bis(1,1-dimethylethyl)-5-hydroxyphenyl]-1,4-dihydro-4-oxoquinoline-3-carboxamide] the “Solid form after desolvation attempt” value ([2]; vacuum oven for one month) was “became x-ray amorphous”.
With CC(C)(C)c1cc(C(C)(C)C)c(NC(=O)c2c[nH]c3ccccc3c2=O)cc1O [Form H, N-[2,4-bis(1,1-dimethylethyl)-5-hydroxyphenyl]-1,4-dihydro-4-oxoquinoline-3-carboxamide] the “Solid form after desolvation attempt” value ([2]; ambient conditions for one month) was “same Form H pattern” and the “Solid form after desolvation attempt” value ([2]; vacuum oven for one month) was “converted to a semi-crystalline form”.
For CC(C)(C)c1cc(C(C)(C)C)c(NC(=O)c2c[nH]c3ccccc3c2=O)cc1O [Form K, N-[2,4-bis(1,1-dimethylethyl)-5-hydroxyphenyl]-1,4-dihydro-4-oxoquinoline-3-carboxamide], the “Solid form after desolvation attempt” value ([2]; ambient conditions and vacuum oven for 2 months) was “converted to a new crystalline form of Compound 1 designated Form S”.
In the case of CC(C)(C)c1cc(C(C)(C)C)c(NC(=O)c2c[nH]c3ccccc3c2=O)cc1O [Form L, N-[2,4-bis(1,1-dimethylethyl)-5-hydroxyphenyl]-1,4-dihydro-4-oxoquinoline-3-carboxamide], the “Solid form after desolvation attempt” value ([2]; ambient conditions for two weeks) is reported as “same Form L pattern” and the “Solid form after desolvation attempt” value ([2]; vacuum oven for 24 hours) is reported as “converted to x-ray amorphous”.
